What was measured:
[1] = Plasma concentration in vivo after transfusion of one unit of 2,3-DPG enhanced cells; conditions: Total Plasma Volume = 2.28 Liters
Protocol: A Y-type tube set is assembled is assembled as shown in FIG. 2 and connected to a unit of RBCs. The tube set includes a 0.2 μm filter. RBC enhancement composition (Rejuvesol® Solution) is transferred to the RBCs via a vented spike to form a treated blood composition. The treated blood composition is mixed and incubated, forming an incubated blood composition. The treated blood composition is centrifuged to form a concentration of RBC and a supernatant. The supernatant is transferred to an empty waste bag, and the concentration of RBCs was resuspended in 100 mL additive solution that was transferred from a second transfer bag.
A Y-type tube set is assembled as shown in FIG. 2 and connected to a unit of 250 mL RBCs. 100 mL additive solution, comprising saline, was transferred to the RBCs. The tube set includes a 0.2 μm filter. 50 mL RBC enhancement composition (Rejuvesol® Solution) was transferred to the RBCs via a vented spike to form a treated blood composition. The treated blood composition was mixed and incubated, forming an incubated blood composition. The incubated blood composition was then diluted with 200 mL wash solution from a first transfer bag containing 200 mL wash solution, forming a diluted blood composition. The diluted blood composition was centrifuged to form a concentration of RBCs and a supernatant. The supernatant was transferred to the now empty first transfer bag, and the concentration of RBCs was resuspended in 100 mL additive solution, which was transferred from a second transfer bag.
Blood processed according to Examples 1 and 2 are analyzed for concentrations of rejuvenation materials in the final processed RBC suspensions, with the following results.

[2] = Total Plasma Volume = 2.28 Liters; refer to 2000 Report by Dr. Lobe; cited from earlier work

Compound	Plasma Concentration in vivo after transfusion of one unit, Concept 2, assume 85% Removal [1]	Plasma Concentration in vivo after transfusion of one unit, Concept 1, assumes 75% Removal [1]	Plasma Concentration in vivo after transfusion of one unit, Without Further Processing [2]
Nc1ncnc2nc[nH]c12 [Adenine]	16 µM	27 µM	110 µM
O=c1[nH]cnc2nc[nH]c12 [Hypoxanthine]	330 µM	550 µM	2190 µM
OC[C@H]1O[C@@H](n2cnc3c(O)ncnc32)[C@H](O)[C@@H]1O [Inosine]	330 µM	550 µM	2190 µM
CC(O)C(=O)O (stereo not drawn) [Lactate]	330 µM	550 µM	2190 µM
CC(=O)C(=O)O [Pyruvate]	330 µM	550 µM	2190 µM
O=c1[nH]c(=O)c2[nH]c(=O)[nH]c2[nH]1 [Uric Acid]	330 µM	550 µM	2190 µM
